Consider 22 compounds from US20240246967A1, “AXL COMPOUNDS” (ARCUS BIOSCIENCES, INC., priority 2021, published 2024).

This assay addresses T1, Axl (Homo sapiens, UniProt P30530).
T1 sequence (P30530 26-894): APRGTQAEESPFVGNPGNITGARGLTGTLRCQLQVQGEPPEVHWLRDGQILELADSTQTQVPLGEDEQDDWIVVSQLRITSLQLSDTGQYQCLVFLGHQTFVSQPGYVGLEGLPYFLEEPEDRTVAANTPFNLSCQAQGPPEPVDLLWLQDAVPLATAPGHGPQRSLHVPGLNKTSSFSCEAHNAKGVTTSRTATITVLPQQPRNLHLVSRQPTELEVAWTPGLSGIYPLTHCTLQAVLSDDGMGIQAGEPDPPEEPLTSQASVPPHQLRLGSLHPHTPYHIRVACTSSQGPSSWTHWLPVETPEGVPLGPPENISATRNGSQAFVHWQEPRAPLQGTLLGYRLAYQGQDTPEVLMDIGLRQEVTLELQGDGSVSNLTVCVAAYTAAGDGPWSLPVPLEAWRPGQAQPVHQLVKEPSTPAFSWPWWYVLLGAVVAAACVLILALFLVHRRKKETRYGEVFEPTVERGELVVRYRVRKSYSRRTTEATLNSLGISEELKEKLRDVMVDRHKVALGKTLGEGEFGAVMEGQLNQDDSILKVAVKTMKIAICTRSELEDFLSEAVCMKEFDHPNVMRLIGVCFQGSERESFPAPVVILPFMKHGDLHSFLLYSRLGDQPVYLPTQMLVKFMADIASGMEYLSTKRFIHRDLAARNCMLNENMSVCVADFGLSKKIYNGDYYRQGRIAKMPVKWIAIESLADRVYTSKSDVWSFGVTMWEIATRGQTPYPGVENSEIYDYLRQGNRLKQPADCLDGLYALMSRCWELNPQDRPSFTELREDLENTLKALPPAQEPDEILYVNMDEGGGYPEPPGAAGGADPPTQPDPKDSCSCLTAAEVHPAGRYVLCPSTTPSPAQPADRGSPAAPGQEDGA
Nature of the assay: Axl NanoBRET intracellular kinase assay (intracellular binding, Cell Binding). The settings on record: HEK-293 cells transfected with Axl-NanoLuc fusion vector; 0.35 μM K-5 NanoBRET tracer. Further details: host or cells: HEK-293. The method in brief:
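HEK-293 cells transiently expressing Axl-NanoLuc fusion were pre-incubated with compound for 1 h at 37 °C (0.5% DMSO), then with 0.35 μM K-5 tracer for 2 h. Tracer displacement read as reduced BRET ratio (610/450 nm); IC50 from 4-parameter fit.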
For orientation: BRET reads energy transfer from a luciferase to a nearby fluorophore.
Consider `C[C@@H]1CCCN1C1(C)CCc2ccc(-c3cnc4[nH]nc(-c5ccc(S(=O)(=O)C6CCC6)cc5)c4c3)cc2CC1` (stereo partly drawn) [Example 46, 3-(4-(Cyclobutylsulfonyl)phenyl)-5-(7-methyl-7-((R)-2-methylpyrrolidin-1-yl)-6,7,8,9-tetrahydro-5H-benzo[7]annulen-2-yl)-1H-pyrazolo[3,4-b]pyridine], for which the 50% inhibitory concentration (IC50) (as a rule, the concentration needed to halve the response being measured) was < 100 nM. `Cc1cc(-c2n[nH]c3ncc(-c4ccc5c(c4)CCC(N4CCCC4)CC5)cc23)ccc1C(=O)N1CCNCC1` (stereo not shown) [Example 47, 1-(2-Methyl-4-{5-[7-(pyrrolidin-1-yl)-6,7,8,9-tetrahydro-5H-benzo[7]annulen-2-yl]-1H-pyrazolo[3,4-b]pyridin-3-yl}benzoyl)piperazine]: the IC50 is < 100 nM. In turn, `Cc1cc(-c2n[nH]c3ncc(-c4ccc5c(c4)CCN(C(=O)C(C)C)CC5)cc23)ccc1C(=O)N1CCNCC1` [Example 48, 2-Methyl-1-(7-{3-[3-methyl-4-(piperazine-1-carbonyl)phenyl]-1H-pyrazolo[3,4-b]pyridin-5-yl}-2,3,4,5-tetrahydro-1H-3-benzazepin-3-yl)propan-1-one] gave an IC50 of 100 to 1000 nM. As to `Cc1cc(-c2n[nH]c3ncc(-c4ccc5c(c4)CC[C@@H](N4CCCC4)CC5)cc23)cc(C)c1C(N)=O` [Example 49, 2,6-Dimethyl-4-{5-[(7S)-7-(pyrrolidin-1-yl)-6,7,8,9-tetrahydro-5H-benzo[7]annulen-2-yl]-1H-pyrazolo[3,4-b]pyridin-3-yl}benzamide], the 50% inhibitory concentration (IC50) is < 100 nM. `Cc1cc(-c2n[nH]c3ncc(-c4ccc5c(c4)CC[C@@H](N4CCCC4)CC5)cc23)cc(Cl)c1C(N)=O` [Example 50, 2-Chloro-6-methyl-4-{5-[(7S)-7-(pyrrolidin-1-yl)-6,7,8,9-tetrahydro-5H-benzo[7]annulen-2-yl]-1H-pyrazolo[3,4-b]pyridin-3-yl}benzamide]: the IC50 is < 100 nM.

As to `C[C@@H]1CCCN1C1(C)CCc2ccc(-c3cnc4[nH]nc(-c5ccc(C(N)=O)c(F)c5)c4c3)cc2CC1` (stereo partly drawn) [Example 52, 2-Fluoro-4-(5-(7-methyl-7-((R)-2-methylpyrrolidin-1-yl)-6,7,8,9-tetrahydro-5H-benzo[7]annulen-2-yl)-1H-pyrazolo[3,4-b]pyridin-3-yl)benzamide], the IC50 is < 100 nM.

Regarding `COc1cc(-c2n[nH]c3ncc(-c4ccc5c(c4)CCC(C)(N4CCC[C@H]4C)CC5)cc23)ccc1C(N)=O` (stereo partly drawn) [Example 53, 2-Methoxy-4-(5-(7-methyl-7-((R)-2-methylpyrrolidin-1-yl)-6,7,8,9-tetrahydro-5H-benzo[7]annulen-2-yl)-1H-pyrazolo[3,4-b]pyridin-3-yl)benzamide], the IC50 is < 100 nM. Under `C[C@@H]1CCCN1C1(C)CCc2ccc(-c3cnc4[nH]nc(-c5ccc(C(N)=O)cc5)c4c3)cc2CC1` (stereo partly drawn) [Example 54, 4-(5-(7-Methyl-7-((R)-2-methylpyrrolidin-1-yl)-6,7,8,9-tetrahydro-5H-benzo[7]annulen-2-yl)-1H-pyrazolo[3,4-b]pyridin-3-yl)benzamide] stands < 100 nM; under `Cc1cc(-c2n[nH]c3ncc(-c4ccc5c(c4)CC[C@@H](N4CCCC4)CC5)cc23)cc(C)c1C(=O)N1CCNCC1` [Example 55, 1-(2,6-Dimethyl-4-{5-[(7S)-7-(pyrrolidin-1-yl)-6,7,8,9-tetrahydro-5H-benzo[7]annulen-2-yl]-1H-pyrazolo[3,4-b]pyridin-3-yl}benzoyl)piperazine], < 100 nM.

Consider `Cc1cc(-c2n[nH]c3ncc(-c4ccc5c(c4)CC[C@@H](N4CCCC4)CC5)cc23)cc(Cl)c1C(=O)N1CCNCC1` [Example 56, 1-(2-Chloro-6-methyl-4-{5-[(7S)-7-(pyrrolidin-1-yl)-6,7,8,9-tetrahydro-5H-benzo[7]annulen-2-yl]-1H-pyrazolo[3,4-b]pyridin-3-yl}benzoyl)piperazine], for which the IC50 is < 100 nM.

With `C[C@@H]1CCCN1C1(C)CCc2ccc(-c3cnc4[nH]nc(-c5ccc(C(C)(C)O)c(Cl)c5)c4c3)cc2CC1` (stereo partly drawn) [Example 57, 2-[2-Chloro-4-(5-{7-methyl-7-[(2R)-2-methylpyrrolidin-1-yl]-6,7,8,9-tetrahydro-5H-benzo[7]annulen-2-yl}-1H-pyrazolo[3,4-b]pyridin-3-yl)phenyl]propan-2-ol], the IC50 is < 100 nM. Compound `C[C@H]1CCCN1C1(C)CCc2ccc(-c3cnc4[nH]nc(-c5ccc(C(C)(C)O)c(Cl)c5)c4c3)cc2CC1` (stereo partly drawn) [Example 58, 2-[2-Chloro-4-(5-{7-methyl-7-[(2S)-2-methylpyrrolidin-1-yl]-6,7,8,9-tetrahydro-5H-benzo[7]annulen-2-yl}-1H-pyrazolo[3,4-b]pyridin-3-yl)phenyl]propan-2-ol] gave an IC50 of 100 to 1000 nM. Under `CC(C)(O)c1ccc(-c2n[nH]c3ncc(-c4cc5c(cn4)CCC(N4CCCC4)CC5)cc23)cc1Cl` (stereo not shown) [Example 59, 2-(2-Chloro-4-{5-[7-(pyrrolidin-1-yl)-5H,6H,7H,8H,9H-cyclohepta[c]pyridin-3-yl]-1H-pyrazolo[3,4-b]pyridin-3-yl}phenyl)propan-2-ol] stands < 100 nM; under `CC(C)(O)c1ccc(-c2n[nH]c3ncc(-c4ccc5c(n4)CCC(N4CCCC4)CC5)cc23)cc1Cl` (stereo not shown) [Example 60, 2-(2-Chloro-4-{5-[7-(pyrrolidin-1-yl)-5H,6H,7H,8H,9H-cyclohepta[b]pyridin-2-yl]-1H-pyrazolo[3,4-b]pyridin-3-yl}phenyl)propan-2-ol], > 1000 nM; under `CC(C)(O)c1ccc(-c2n[nH]c3ncc(-c4ccc5c(c4)CC4CCC(C5)C4N4CCCC4)cc23)cc1Cl` (stereo not shown) [Example 61, 2-(2-Chloro-4-{5-[13-(pyrrolidin-1-yl)tricyclo[8.2.1.0^3,8]trideca-3,5,7-trien-5-yl]-1H-pyrazolo[3,4-b]pyridin-3-yl}phenyl)propan-2-ol], > 1000 nM. Then `C[C@@H]1CCCN1C1CCc2ccc(-c3cnc4[nH]nc(-c5ccc(C6(O)CCC6)c(Cl)c5)c4c3)cc2CC1` (stereo partly drawn) [Example 62, 1-[2-Chloro-4-(5-{7-[(2R)-2-methylpyrrolidin-1-yl]-6,7,8,9-tetrahydro-5H-benzo[7]annulen-2-yl}-1H-pyrazolo[3,4-b]pyridin-3-yl)phenyl]cyclobutan-1-ol], with < 100 nM. `C[C@@H]1CCCN1C1CCc2ccc(-c3cnc4[nH]nc(-c5ccc(S(N)(=O)=O)c(Cl)c5)c4c3)cc2CC1` (stereo partly drawn) [Example 94, 2-Chloro-4-(5-(7-((R)-2-methylpyrrolidin-1-yl)-6,7,8,9-tetrahydro-5H-benzo[7]annulen-2-yl)-1H-pyrazolo[3,4-b]pyridin-3-yl)benzenesulfonamide]: the IC50 is < 100 nM. In the case of `C[C@@H]1CCCN1C1(C)CCc2ccc(-c3cnc4[nH]nc(-c5ccc(S(N)(=O)=O)cc5)c4c3)cc2CC1` (stereo partly drawn) [Example 95, 4-(5-(7-Methyl-7-((R)-2-methylpyrrolidin-1-yl)-6,7,8,9-tetrahydro-5H-benzo[7]annulen-2-yl)-1H-pyrazolo[3,4-b]pyridin-3-yl)benzenesulfonamide], the IC50 was < 100 nM. In the case of `CC(C)(O)c1ccc(-c2n[nH]c3ncc(-c4ccc5c(c4)CCC4(CCCN4)CC5)cc23)cc1Cl` (stereo not shown) [Example 96, 2-[2-Chloro-4-(5-{5,6,8,9-tetrahydrospiro[benzo[7]annulene-7,2′-pyrrolidin]-3-yl}-1H-pyrazolo[3,4-b]pyridin-3-yl)phenyl]propan-2-ol], the IC50 is > 1000 nM.

`C[C@@H]1CCCN1C1CCc2ccc(-c3cnc4[nH]nc(-c5ccc(C(C)(C)O)cn5)c4c3)cc2CC1` (stereo partly drawn) [Example 97, 2-[6-(5-{7-[(2R)-2-Methylpyrrolidin-1-yl]-6,7,8,9-tetrahydro-5H-benzo[7]annulen-2-yl}-1H-pyrazolo[3,4-b]pyridin-3-yl)pyridin-3-yl]propan-2-ol]: the IC50 was > 1000 nM. With `C[C@@H]1CCCN1C1(C)CCc2ccc(-c3cnc4[nH]nc(-c5cnc(C(C)(C)O)c(Cl)c5)c4c3)cc2CC1` (stereo partly drawn) [Example 98, 2-[3-Chloro-5-(5-{7-methyl-7-[(2R)-2-methylpyrrolidin-1-yl]-6,7,8,9-tetrahydro-5H-benzo[7]annulen-2-yl}-1H-pyrazolo[3,4-b]pyridin-3-yl)pyridin-2-yl]propan-2-ol], the IC50 was 100 to 1000 nM.

Take `C[C@@H]1CCCN1C1(C)CCc2ccc(-c3cnc4[nH]nc(-c5ccc(C(=O)N[C@@H]6CCOC6)cc5)c4c3)cc2CC1` (stereo partly drawn) [Example 99, 4-(5-{7-Methyl-7-[(2R)-2-methylpyrrolidin-1-yl]-6,7,8,9-tetrahydro-5H-benzo[7]annulen-2-yl}-1H-pyrazolo[3,4-b]pyridin-3-yl)-N-[(3R)-oxolan-3-yl]benzamide]: the IC50 was < 100 nM.
